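Compound exposure: 48 hours, 5 concentrations, 96-well plates. TGI is the concentration that stops growth completely.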
Legend:
Test in all cases: NCI-60 cell line screen, 48 h
IGROV1 ovarian = system: IGROV1 ovarian
TK-10 renal = system: TK-10 renal
DU-145 prostate = system: DU-145 prostate
RXF 393 renal = system: RXF 393 renal
CCRF-CEM leukemia = system: CCRF-CEM leukemia
UO-31 renal = system: UO-31 renal
SN12C renal = system: SN12C renal
UACC-62 melanoma = system: UACC-62 melanoma
PC-3 prostate = system: PC-3 prostate
HT29 colon = system: HT29 colon
SK-MEL-28 melanoma = system: SK-MEL-28 melanoma
NCI-H226 lung = system: NCI-H226 lung
U251 CNS = system: U251 CNS
MDA-MB-435 = system: MDA-MB-435
A549 NSCLC = system: A549 NSCLC
OVCAR-8 ovarian = system: OVCAR-8 ovarian
MALME-3M melanoma = system: MALME-3M melanoma
K-562 leukemia = system: K-562 leukemia
SK-MEL-5 melanoma = system: SK-MEL-5 melanoma
OVCAR-5 ovarian = system: OVCAR-5 ovarian
T-47D breast = system: T-47D breast
EKVX NSCLC = system: EKVX NSCLC
ACHN renal = system: ACHN renal
NCI-H23 lung = system: NCI-H23 lung
KM12 colon = system: KM12 colon
HCC-2998 colon = system: HCC-2998 colon
MOLT-4 leukemia = system: MOLT-4 leukemia
NCI-H460 lung = system: NCI-H460 lung
SK-OV-3 ovarian = system: SK-OV-3 ovarian
SNB-75 CNS = system: SNB-75 CNS
NCI/ADR-RES ovarian = system: NCI/ADR-RES ovarian
HCT-15 colon = system: HCT-15 colon
HOP-62 NSCLC = system: HOP-62 NSCLC
A498 renal = system: A498 renal
HS 578T breast = system: HS 578T breast
SNB-19 CNS = system: SNB-19 CNS
OVCAR-3 ovarian = system: OVCAR-3 ovarian
COLO 205 colon = system: COLO 205 colon
BT-549 breast = system: BT-549 breast
SF-539 CNS = system: SF-539 CNS
MCF7 breast = system: MCF7 breast
SF-295 CNS = system: SF-295 CNS
UACC-257 melanoma = system: UACC-257 melanoma
SF-268 CNS = system: SF-268 CNS
SW-620 colon = system: SW-620 colon
HOP-92 NSCLC = system: HOP-92 NSCLC
M14 melanoma = system: M14 melanoma
RPMI-8226 leukemia = system: RPMI-8226 leukemia
SR leukemia = system: SR leukemia
786-0 renal = system: 786-0 renal
HCT-116 colon = system: HCT-116 colon
MDA-N = system: MDA-N
CAKI-1 renal = system: CAKI-1 renal
SK-MEL-2 melanoma = system: SK-MEL-2 melanoma
LOX IMVI melanoma = system: LOX IMVI melanoma
HL-60(TB) leukemia = system: HL-60(TB) leukemia
OVCAR-4 ovarian = system: OVCAR-4 ovarian
NCI-H522 lung = system: NCI-H522 lung
MDA-MB-231 breast = system: MDA-MB-231 breast

Measured: TGI

COc1cc(COC(=O)N[C@H](C(=O)O)C(C)(C)C)c([N+](=O)[O-])cc1OC
not listed: CAKI-1 renal | SK-MEL-2 melanoma | LOX IMVI melanoma | HL-60(TB) leukemia | OVCAR-4 ovarian | NCI-H522 lung | MDA-MB-231 breast
> 100 µM: all other assays above

CC(C)(C)C(=O)C(CC(=O)c1ccccc1)C(=O)C(C)(C)C
not listed: RXF 393 renal | UACC-62 melanoma | BT-549 breast | SR leukemia
> 100 µM: all other assays above
